Reference: patent US7456205B2, “Benzopyran compounds, process for preparing the same and their use” (Shanghai Institute of Materia Medica, Chinese Academy of …, priority 2003, dated 2008)

Columns and labels:
3T3-L1 cells = experiment: Insulin-sensitizing activity in 3T3-L1 preadipocyte model, triglyceride accumulation as indication of cell differentiation; assay type: cell-based; conditions: for The Percentage of Triglyceride Increased in 3T3-L1 Cells: with IBMX, DEX and insulin, average of 3 pores (rosiglitazone n = 22, mean ± SD); for insulin-sensitizing activity: verbal summary of Table 2
Method: The insulin-sensitizing agents can promote the differentiation of pre-adipocytes toward adipocyte. Thus insulin-sensitizing agents could be identified with the insex of the differentiation of pre-adipocytes. Following the methods reported in the literature [Kletzein B F. Mol. Pharm. 1991, 41, 393], the insulin-sensitizing activities of the compounds of formula (I) of the present invention were evaluated in 3T3-L1 preadipocyte model with triglyceride accumulation in cells as the indication of cell differentiation.
The 3T3-L1 cells were incubated in DMEM (Dulbecco's Modified Eagle's Medium) containing 10% NBS (newborn calf serum) and subcultured every 3 days. The cells were transferred to 24-pore plates, and after the pores were filled completely, the cells were treated with IBMX (isobutylmethylxanthine) (0.5 mmol/L), DEX (dexamethasone) (1 μmol/L) and insulin (1.0 μmol/L) for 48 h, meanwhile different amounts of test compounds were added into. The cells were incubated continuously until the end of the experiment. Cells were collected and the contents of triglyceride and protein therein were determined by colorimetry. Enhancements of triglyceride in cells after drug-administrating were calculated.
The positive control group was rosiglitazone, and the solvent control group was a culturing medium containing 0.1% of DMSO. […] Thus, the derivatives of the benzopyran compounds of the present invention can be used to control the blood glucose level in type II diabetes patients and inhibit the occurrence of complications caused by the type II diabetes.

Row | melting point [°C] | SMILES | The Percentage of Triglyceride Increased in 3T3-L1 Cells (3T3-L1 cells; test compound 0.01 μmol/L) [%] | The Percentage of Triglyceride Increased in 3T3-L1 Cells (3T3-L1 cells; test compound 0.1 μmol/L) [%] | The Percentage of Triglyceride Increased in 3T3-L1 Cells (3T3-L1 cells; test compound 1 μmol/L) [%] | insulin-sensitizing activity (3T3-L1 cells)
1 |  | O=C(O)c1cc2ccc(OCCn3ccc4ccccc43)cc2oc1=O [Compound 9, 7-[2-(1-indole)ethoxyl]-2-oxo-2H-1-benzopyran-3-carboxylic acid] | −5.25 | −8.42 | −12.95 | 
2 |  | CCc1ccc(CCOc2ccc3cc(C(=O)OC)c(=O)oc3c2)nc1 [Compound 4, 7-[2-(5-ethyl-2-pyridine)ethyoxyl]-2-oxo-2H-1-benzopyran-3-carboxylic acid methyl ester] | 7.26 | 11.55 | 17.71 | 
3 |  | O=C(O)c1cc2ccc(OCc3ccccc3)cc2oc1=O [Compound 2, 7-benzyloxyl-2-oxo-2H-1-benzopyran-3-carboxylic acid] | 20.86 | 18.31 | 14.63 | 
4 |  | COC(=O)c1cc2ccc(OCCn3ccc4ccccc43)cc2oc1=O [Compound 5, 7-[2-(1-indole)ethoxyl]-2-oxo-2H-1-benzopyran-3-carboxylic acid methyl ester] | 7.88 | 27.58 | 34.74 | 
5 | 88 to 90 | COC(=O)C1Cc2ccc(OCCN(C)c3nc4ccccc4o3)cc2OC1=O (centres unmarked) [Compound 16, 7-[2-[N-methyl-N-(2-benzoxazole)amino]ethoxyl]-3,4-dihydro-2-oxo-4H-1-benzopyran-3-carboxylic acid methyl ester] | 11.01 | 29.32 | 25.09 | 
6 |  | Cc1oc(-c2ccccc2)nc1CCOc1ccc2c(c1)OC(=O)C(C(=O)O)C2 (centres unmarked) [Compound 18, 7-[2-(5-methyl-2-phenyl-4-oxazole)ethoxyl]-3,4-dihydro-2-oxo-4H-1-benzopyran-3-carboxylic acid] | 18.65 | 29.28 | 30.24 | stronger insulin-sensitizing activity
7 |  | Cc1oc(-c2ccccc2)nc1CCOc1ccc2cc(C(=O)OC(C)(C)C)c(=O)oc2c1 [Compound 17, 7-[2-(5-methyl-2-phenyl-4-oxazole)ethoxyl]-2-oxo-2H-1-benzopyran-3-carboxylic acid tert-butyl ester] | 18.33 | 28.20 | 33.01 | stronger insulin-sensitizing activity
8 |  | COC(=O)C1Cc2ccc(OCc3ccc(C(F)(F)F)cc3)cc2OC1=O (centres unmarked) [Compound 14, 7-(4-trifluoromethylbenzyloxyl)-3,4-dihydro-2-oxo-4H-1-benzopyran-3-carboxylic acid methyl ester] | 19.33 | −16.81 | −2.69 | 
9 |  | CCc1ccc(CCOc2ccc3cc(C(=O)O)c(=O)oc3c2)nc1 [Compound 8, 7-[2-(5-ethyl-2-pyridine)ethyoxyl]-2-oxo-2H-1-benzopyran-3-carboxylic acid] | 12.25 | 3.67 | 5.66 | 
10 |  | COC(=O)C1Cc2ccc(OCCc3nc(-c4ccccc4)oc3C)cc2OC1=O (centres unmarked) [Compound 13, 7-[2-(5-methyl-2-phenyl-4-oxazole)ethoxyl]-3,4-dihydro-2-oxo-4H-1-benzopyran-3-carboxylic acid methyl ester] | 28.33 | 52.92 | 64.69 | stronger insulin-sensitizing activity
11 | 100 to 101 | COC(=O)c1cc2ccc(OCCc3ccccc3)cc2oc1=O [Compound 3, 7-(2-phenyl)ethoxyl-2-oxo-2H-1-benzopyran-3-carboxylic acid methyl ester] | 4.57 | −2.61 | −5.50 | 
12 |  | COC(=O)C1Cc2ccc(OCCc3ccccc3)cc2OC1=O (centres unmarked) [Compound 11, 7-(2-phenyl)ethoxyl-3,4-dihydro-2-oxo-4H-1-benzopyran-3-carboxylic acid methyl ester] | −9.13 | 12.90 | 14.10 | 
13 |  | Cc1oc(-c2ccccc2)nc1CCOc1ccc2cc(C(=O)O)c(=O)oc2c1 [Compound 10, 7-[2-(5-methyl-2-phenyl-4-oxazole)ethoxyl]-2-oxo-2H-1-benzopyran-3-carboxylic acid] | −3.28 | 26.68 | 32.30 | 
14 |  | O=C(O)c1cc2ccc(OCCc3ccccc3)cc2oc1=O [Compound 7, 7-(2-phenyl)ethoxyl-2-oxo-2H-1-benzopyran-3-carboxylic acid] | 7.97 | −1.10 | −6.29 | 
15 | 129 to 130 | COC(=O)c1cc2ccc(OCc3ccccc3)cc2oc1=O [Compound 1, 7-benzyloxyl-2-oxo-2H-1-benzopyran-3-carboxylic acid methyl ester] | −5.73 | −0.43 | 7.93 | 
16 |  | COC(=O)c1cc2ccc(OCCc3nc(-c4ccccc4)oc3C)cc2oc1=O [Compound 6, 7-[2-(5-methyl-2-phenyl-4-oxazole)ethoxyl]-2-oxo-2H-1-benzopyran-3-carboxylic acid methyl ester] | 27.04 | 67.24 | 52.45 | stronger insulin-sensitizing activity
17 |  | CCc1ccc(CCOc2ccc3c(c2)OC(=O)C(C(=O)OC)C3)nc1 (centres unmarked) [Compound 12, 7-[2-(5-ethyl-2-pyridine)ethyoxyl]-3,4-dihydro-2-oxo-4H-1-benzopyran-3-carboxylic acid methyl ester] | 4.13 | −2.40 | 2.53 | 

Row | SMILES | melting point [°C] | The Percentage of Triglyceride Increased in 3T3-L1 Cells (3T3-L1 cells; test compound 0.01 μmol/L) [%] | The Percentage of Triglyceride Increased in 3T3-L1 Cells (3T3-L1 cells; test compound 0.1 μmol/L) [%] | The Percentage of Triglyceride Increased in 3T3-L1 Cells (3T3-L1 cells; test compound 1 μmol/L) [%] | insulin-sensitizing activity (3T3-L1 cells)
18 | COC(=O)c1cc2ccc(OCCN(C)C(=O)OC(C)(C)C)cc2oc1=O [Compound 15, 7-[2-(N-tert-butoxycarbonyl-N-methylamino)ethoxyl]-2-oxo-2H-1-benzopyran-3-carboxylic acid methyl ester] | 128 to 129 | 26.38 | 26.73 | 44.70 | 
